Values of other authors as cited in patent US8440172B2, “Stable soluble salts of phenylbenzimidazole sulfonic acid at PHS at or below 7.0” (Symrise AG, priority 2007, dated 2013).

Legend:
[1] = free acid, not neutralised

O=S(=O)(O)c1ccc2nc(-c3ccccc3)[nH]c2c1 [phenylbenzimidazole sulfonic acid, 2-phenylbenzimidazole-5-sulfonic acid]
pH of cosmetic formulation needed to prevent the free acid from recrystallising (Johncock, Cosmetic & Toiletries Magazine 1999): above 6.8
pH at which crystal formation starts (cosmetic formulation, Johncock 1999): 7.0
solubility in water [1]: 0.25 % w/w
